# Read-outs that look alike come from different tables or passages of the source.
# Columns and labels:
# Type in all cases: cell-based
# [1] = system: vaccinia virus mature virions (EGFP-MV)
# [2] = system: MV-induced blebbing of HeLa cells; settings: microscopy
# [3] = system: vaccinia virus mature virions (mYFP-MV)
# [4] = system: vaccinia virus mature virions
# [5] = system: vaccinia virus mature virions (MV entry)
# [6] = system: vaccinia virus mature virions (mYFP-MV); remark: listed apart in the source
compound,measurement,setting,value
"CCN(c1nc(N)c(C(=O)N=C(N)N)nc1Cl)C(C)C [EIPA, 5-N-ethyl-N-isopropyl-amiloride]",inhibition of viral infection,[1],90%
same,MV-induced bleb formation,[2],inhibited bleb-formation
same,internalization of MV into FITC-dextran positive vacuoles,[3],prevented internalization
Cc1ccc2c(c1)C(=O)C1(O)CCN(c3ccccc3)C1=N2 (centres unmarked) [Blebbistatin],inhibition of viral infection,[1],62%
same,MV-induced bleb formation,[2],prevented formation of the blebs
same,MV-induced bleb formation,[2]; listed as blebbistatin,inhibited bleb-formation
phosphatidylserine [PS],fraction of original infectivity and plaque formation rescued,[4],90%
O=c1c(-c2ccc(O)cc2)coc2cc(O)cc(O)c12 [genistein],inhibition of viral infection,[1],up to 82%
COC[C@H]1OC(=O)c2coc3c2[C@@]1(C)C1=C(C3=O)[C@@H]2CCC(=O)[C@@]2(C)C[C@H]1OC(C)=O [wortmannin],inhibition of viral infection,[1],up to 63%
O=C(Nc1cccc(Nc2cc(Nc3cccc(C(F)(F)F)c3)ncn2)c1)C1CC1 [EGFR inhibitor 324674],MV entry,[5],effectively blocks MV entry
ANX5,infectivity,[1],no effect
same,inhibition of infection by masking of viral PS,[1],95%
same,MV binding to cells,[6],without affecting MV binding
same,viral binding,[6],no effect

# Reference: patent US20100272706A1, “ANTIVIRALS” (priority 2007, published 2010)
